System: retinal ganglion cells
Experiment: NMDA-induced glutamate toxicity mouse model for glaucoma: count of surviving retinal ganglion cells after oral feeding
Format: in vivo, mice
Conditions: for survival efficacy (percent of retinal ganglion cells that survive relative to no treatment): Example 3, FIG. 3, separate mouse pools

O=C([O-])c1cc(=O)[nH]c(=O)[nH]1.[Li+] [Lithium, lithium orotate]
increase in the surviving ganglion cells (Example 1, FIG. 1, mice, oral ingestion, human equivalent dosage Lithium 5.8 mg lithium orotate per day, St. Johns Wort 2-4 grams per day): about 15%
survival rate of retinal ganglion cells (Example 2, FIG. 2, mice, gavage eight days, intravitreal NMDA 150 mM 0.5 microliter after six days, Li orotate 63 μg/day, herb 32 mg per mouse per day): about 15%
survival efficacy (percent of retinal ganglion cells that survive relative to no treatment) (1/5th the dosage, human equivalent 1.16 mg lithium orotate): approximately 13%
survival efficacy (percent of retinal ganglion cells that survive relative to no treatment) (5 times the dosage, human equivalent 29 mg lithium orotate): approximately 8%

From US20080026073A1, “METHOD AND COMPOSITION FOR LITHIUM ADDITIVE IN TREATMENT OF GLUTAMATE TOXICITY” (priority 2006, published 2008)
